Experimental findings from PubChem BioAssay (NCI) are described below.

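Five concentrations, 48 hours, 96-well plates. Here, GI50 denotes the concentration required for 50% inhibition of growth. TGI: concentration producing complete growth inhibition.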 Bounds are passed on as bounds.

Some test systems named below: OVCAR-4 ovarian; OVCAR-8 ovarian; HCT-116 colon; TK-10 renal; NCI-H226 lung; CAKI-1 renal; PC-3 prostate; HCC-2998 colon; MCF7 breast; MDA-MB-435.
Holding throughout (test): growth of human tumour cells (NCI), 48 h

On to `Cc1cc(C(=O)c2ccccc2)c(C)c2c1[nH]c1ccc(Cl)cc12`, for which the GI50 in the assay with OVCAR-4 ovarian is 3.01 µM; with OVCAR-8 ovarian it was 0.148 µM; with HCT-116 colon it was 0.0437 µM; in the assay with TK-10 renal, 3.11 µM; with NCI-H226 lung, 0.892 µM; in the assay on CAKI-1 renal, 0.0521 µM. The GI50 is 0.0526 µM with PC-3 prostate, 0.176 µM with HCC-2998 colon, 0.0361 µM in the assay with MCF7 breast and 0.0286 µM with MDA-MB-435. The TGI is 60 µM in the assay with OVCAR-4 ovarian; above 100 µM with OVCAR-8 ovarian; 4.74 µM in the assay with HCT-116 colon; 31.3 µM with TK-10 renal; 15.6 µM in the assay on NCI-H226 lung; 6.05 µM in the assay with CAKI-1 renal. Moreover, the TGI in the assay on PC-3 prostate was above 43.9 µM; in the assay with HCC-2998 colon, 8.14 µM; in the assay on MCF7 breast, 17.9 µM; with MDA-MB-435, 0.321 µM.
Regarding `COC(=O)C(C)NC(=O)c1ccccc1I(OS(=O)(=O)C(F)(F)F)c1ccccc1` (stereo not given), the GI50 is 19.1 µM with OVCAR-4 ovarian; 36.3 µM with OVCAR-8 ovarian; 30 µM in the assay on HCT-116 colon; 21 µM in the assay with TK-10 renal; 17.1 µM in the assay on NCI-H226 lung; above 42.8 µM in the assay on CAKI-1 renal. The GI50 in the assay on PC-3 prostate was 22 µM; with HCC-2998 colon it was 14.7 µM; in the assay on MCF7 breast it was 22.3 µM; in the assay with MDA-MB-435, above 41.3 µM. Besides, the TGI with OVCAR-4 ovarian is 50.9 µM; in the assay with OVCAR-8 ovarian, above 100 µM; in the assay with HCT-116 colon, above 100 µM; in the assay on TK-10 renal it was 57.6 µM; with NCI-H226 lung, 36 µM; in the assay on CAKI-1 renal, above 62.5 µM. For the same molecule, the TGI in the assay with PC-3 prostate is 53.1 µM; with HCC-2998 colon, 32.3 µM; in the assay with MCF7 breast, above 65.5 µM; with MDA-MB-435 it was above 57.1 µM.
Consider `CC1=NN(c2nc(N)nc(/C=C\c3ccc([N+](=O)[O-])s3)n2)C(C)(C)C1`, for which the GI50 in the assay on OVCAR-4 ovarian, with OVCAR-8 ovarian, with HCT-116 colon, in the assay with TK-10 renal, with NCI-H226 lung and in the assay with CAKI-1 renal was above 100 µM in each case. In addition, the GI50 was above 100 µM in the assay with PC-3 prostate, above 100 µM with HCC-2998 colon, above 100 µM with MCF7 breast and 62.8 µM with MDA-MB-435. In addition, the TGI in the assay with OVCAR-4 ovarian, with OVCAR-8 ovarian, in the assay on HCT-116 colon, in the assay with TK-10 renal, with NCI-H226 lung and in the assay with CAKI-1 renal was above 100 µM each time. For the same molecule, the TGI with PC-3 prostate, with HCC-2998 colon, with MCF7 breast and in the assay with MDA-MB-435 was above 100 µM throughout.
As to `CC#Cc1nc(Nc2cc(C)[nH]n2)c2ccccc2n1`, the GI50 in the assay on OVCAR-4 ovarian is 3.46 µM; in the assay with OVCAR-8 ovarian, 5.05 µM; in the assay with HCT-116 colon it was 3.66 µM; in the assay with TK-10 renal, 3.57 µM; in the assay on NCI-H226 lung, 2.21 µM; with CAKI-1 renal, 2.32 µM. Also, the GI50 in the assay on PC-3 prostate is 5.22 µM; with HCC-2998 colon, 2.43 µM; in the assay with MCF7 breast, 3.32 µM; in the assay on MDA-MB-435, 3.18 µM. Besides, the TGI with OVCAR-4 ovarian was above 100 µM; in the assay on OVCAR-8 ovarian it was 37.3 µM; in the assay with HCT-116 colon, 39.4 µM; in the assay with TK-10 renal, 21.2 µM; in the assay on NCI-H226 lung, 11.1 µM; in the assay on CAKI-1 renal, 13.8 µM. The TGI in the assay on PC-3 prostate was found to be 21.6 µM; in the assay on HCC-2998 colon, 5.48 µM; with MCF7 breast, 95.7 µM; in the assay with MDA-MB-435, 13.3 µM.
Turning to `NC(=S)NN=C1CSSC1`, the GI50 in the assay on OVCAR-4 ovarian was 4.32 µM; in the assay with OVCAR-8 ovarian, 2.94 µM; in the assay on HCT-116 colon, 2.78 µM; with TK-10 renal it was 2.73 µM; in the assay on NCI-H226 lung, 1.66 µM; in the assay with CAKI-1 renal it was 3.61 µM. In addition, the GI50 in the assay on PC-3 prostate is 3.57 µM; in the assay with HCC-2998 colon, 6.74 µM; in the assay on MCF7 breast, 2.85 µM; with MDA-MB-435 it was 5.79 µM. Further, the TGI was determined as 38.7 µM in the assay with OVCAR-4 ovarian; 23.4 µM with OVCAR-8 ovarian; 11.8 µM with HCT-116 colon; 7.62 µM in the assay on TK-10 renal; 14.5 µM with NCI-H226 lung; 40.3 µM in the assay with CAKI-1 renal. Moreover, the TGI in the assay with PC-3 prostate turned out to be 24.5 µM; in the assay with HCC-2998 colon it was 40.3 µM; in the assay on MCF7 breast, 17.6 µM; with MDA-MB-435, 44.7 µM.
Regarding `CC1(C)C(=O)/C(=C\c2cccnc2)C[C@]2(C)[C@H]3CC[C@@H]4[C@@H](C(=O)/C=C/c5ccncc5)CC[C@@]4(C)[C@]3(C)CC[C@@H]12`, the GI50 was 2.55 µM with OVCAR-4 ovarian; 2.34 µM with OVCAR-8 ovarian; 1.62 µM with HCT-116 colon; 2.7 µM with TK-10 renal; 2.34 µM in the assay with NCI-H226 lung; 2.51 µM in the assay on CAKI-1 renal. In addition, the GI50 in the assay on PC-3 prostate is 1.65 µM; in the assay with HCC-2998 colon, 2.1 µM; with MCF7 breast, 0.804 µM; with MDA-MB-435, 1.98 µM. Besides, the TGI with OVCAR-4 ovarian stood at 9.89 µM; in the assay with OVCAR-8 ovarian it was 10.3 µM; in the assay on HCT-116 colon it was 3.16 µM; with TK-10 renal, 5.29 µM; in the assay on NCI-H226 lung, 5.78 µM; in the assay with CAKI-1 renal, 6.46 µM. Further, the TGI amounted to 4.55 µM in the assay on PC-3 prostate, 3.84 µM in the assay with HCC-2998 colon, 4.62 µM in the assay with MCF7 breast and 4.77 µM in the assay on MDA-MB-435.
`O=C(O)c1cc2ccccc2c2c1C(=O)c1ccccc1-2`: the TGI with OVCAR-4 ovarian, with OVCAR-8 ovarian, in the assay with HCT-116 colon, in the assay with TK-10 renal, with NCI-H226 lung and with CAKI-1 renal was above 100 µM each time. Besides, the TGI in the assay on PC-3 prostate, in the assay with HCC-2998 colon, in the assay with MCF7 breast and in the assay on MDA-MB-435 was above 100 µM in each case.
`CCCCCCCCCCCCCCCCCC(=O)Nc1ccn(C2OC(CO)C(O)C2O)c(=O)n1` (stereo not given): the TGI in the assay on OVCAR-4 ovarian was above 100 µM; in the assay on OVCAR-8 ovarian, above 84.8 µM; with HCT-116 colon it was above 100 µM; in the assay with TK-10 renal it was above 100 µM; in the assay on NCI-H226 lung, above 100 µM; in the assay on CAKI-1 renal, above 100 µM. Besides, the TGI with PC-3 prostate, with HCC-2998 colon, in the assay with MCF7 breast and in the assay on MDA-MB-435 was above 100 µM in each case.
